Experiments:
[1] = Immunosuppressive activity in human T cells assessed as inhibition of LFA1-mediated cell proliferation by mixed lymphocyte reaction assay; type: functional, cell-based
PBMC = test: Antiinflammatory activity in human PBMC assessed as inhibition of LPS-induced TNFalpha production; type: functional, cell-based

COc1ccc(-c2cnc3nc(N)nc(N4CCN(C(=O)Nc5ccc(C#N)cc5)CC4)c3n2)cc1OC
IC50 [1]: 74 nM | IC50 (PBMC): 630 nM

CCOc1nc(N)nc2ncc(-c3ccc(OC)cc3)nc12
IC50 [1]: > 10000 nM | IC50 (PBMC): 4500 nM

COc1ccc(-c2cnc3nc(N)nc(N4CCOCC4)c3n2)cc1OC
IC50 [1]: 100 nM | IC50 (PBMC): 400 nM

COc1ccc(-c2cnc3nc(N)nc(N4CCN(C(=O)COc5ccccc5)CC4)c3n2)cc1OC
IC50 [1]: 4 nM | IC50 (PBMC): 80 nM

CC(C)Oc1nc(N)nc2ncc(-c3ccc(F)c(F)c3)nc12
IC50 [1]: 10000 nM | IC50 (PBMC): 6600 nM

COc1ccc(-c2cnc3nc(N)nc(N4CCN(C(=O)NCc5ccccc5)CC4)c3n2)cc1OC
IC50 [1]: 18 nM

CC(C)Oc1nc(N)nc2ncc(-c3ccc(C#N)cc3)nc12
IC50 [1]: > 10000 nM | IC50 (PBMC): 6300 nM

COc1ccc(-c2cnc3nc(N)nc(N4CCN(Cc5ccc(C(C)(C)C)cc5)CC4)c3n2)cc1OC
IC50 [1]: 4300 nM | IC50 (PBMC): 700 nM

COc1ccc(-c2cnc3nc(N)nc(N4CCN(c5ccc(C)cc5)CC4)c3n2)cc1OC
IC50 [1]: 300 nM | IC50 (PBMC): 10 nM

COc1ccc(-c2cnc3nc(N)nc(OC(C)C)c3n2)cc1OC
IC50 [1]: 400 nM | IC50 (PBMC): 2300 nM

CCOc1nc(N)nc2ncc(-c3ccc(C#N)cc3)nc12
IC50 [1]: > 10000 nM | IC50 (PBMC): > 10000 nM

COc1ccc(-c2cnc3nc(N)nc(N4CCC(C)CC4)c3n2)cc1OC
IC50 [1]: 800 nM | IC50 (PBMC): 300 nM

Cc1ccc(-c2cnc3nc(N)nc(OC(C)C)c3n2)cc1C
IC50 [1]: 10000 nM | IC50 (PBMC): 6700 nM

COc1ccc(-c2cnc3nc(N)nc(N4CCN(c5ccc(F)cc5)CC4)c3n2)cc1OC
IC50 [1]: 100 nM | IC50 (PBMC): 50 nM

COc1ccc(-c2cnc3nc(N)nc(N4CCN(Cc5c(Cl)cccc5Cl)CC4)c3n2)cc1OC
IC50 [1]: 7600 nM | IC50 (PBMC): 700 nM

COc1ccc(-c2cnc3nc(N)nc(NC4CCCC4)c3n2)cc1OC
IC50 [1]: 800 nM | IC50 (PBMC): 600 nM

CCOc1nc(N)nc2ncc(-c3ccc(Cl)c(Cl)c3)nc12
IC50 [1]: > 10000 nM | IC50 (PBMC): > 10000 nM

CCOc1nc(N)nc2ncc(-c3ccc(CC)cc3)nc12
IC50 [1]: 8200 nM | IC50 (PBMC): 8500 nM

COc1ccc(-c2cnc3nc(N)nc(NCc4cccs4)c3n2)cc1OC
IC50 [1]: 4100 nM | IC50 (PBMC): 7200 nM

COc1ccc(-c2cnc3nc(N)nc(N4CCN(C(=O)CCc5ccccc5)CC4)c3n2)cc1OC
IC50 [1]: 100 nM | IC50 (PBMC): 10 nM

COc1ccc(-c2cnc3nc(N)nc(N4CCN(c5ccccc5)CC4)c3n2)cc1OC
IC50 [1]: 400 nM | IC50 (PBMC): 50 nM

CCOc1nc(N)nc2ncc(-c3ccc(C(F)(F)F)cc3)nc12
IC50 [1]: 10000 nM | IC50 (PBMC): > 10000 nM

COc1ccc(-c2cnc3nc(N)nc(NC(C)C)c3n2)cc1OC
IC50 [1]: 600 nM | IC50 (PBMC): 300 nM

COc1ccc(-c2cnc3nc(N)nc(N4CCN(C(=O)Nc5ccccc5)CC4)c3n2)cc1OC
IC50 [1]: 3.4 nM | IC50 (PBMC): 90 nM

COc1ccc(-c2cnc3nc(N)nc(NCc4ccccc4)c3n2)cc1OC
IC50 [1]: 13000 nM | IC50 (PBMC): 6500 nM

COc1ccc(-c2cnc3nc(N)nc(N4CCN(C(=O)Nc5ccc(F)cc5)CC4)c3n2)cc1OC
IC50 [1]: 7 nM | IC50 (PBMC): 510 nM

COc1ccc(-c2cnc3nc(N)nc(N4CCN(C(=O)Nc5ccc(C)cc5)CC4)c3n2)cc1OC
IC50 [1]: 0.8 nM | IC50 (PBMC): 430 nM

CCOc1nc(N)nc2ncc(-c3ccc(F)c(F)c3)nc12
IC50 [1]: > 10000 nM | IC50 (PBMC): > 10000 nM

COc1ccc(-c2cnc3nc(N)nc(N4CCN(C(=O)Nc5cccc(C)c5)CC4)c3n2)cc1OC
IC50 [1]: 7 nM | IC50 (PBMC): 100 nM

COc1ccc(-c2cnc3nc(N)nc(N4CCN(C(=O)COc5ccc(Cl)cc5)CC4)c3n2)cc1OC
IC50 [1]: 0.5 nM | IC50 (PBMC): 77 nM

COc1ccc(-c2cnc3nc(N)nc(NCCc4ccccc4)c3n2)cc1OC
IC50 [1]: 6000 nM | IC50 (PBMC): 7100 nM

COc1ccc(-c2cnc3nc(N)nc(N4CCSCC4)c3n2)cc1OC
IC50 [1]: 400 nM | IC50 (PBMC): 500 nM

COc1ccc(-c2cnc3nc(N)nc(OC(C)C)c3n2)cc1
IC50 [1]: > 10000 nM | IC50 (PBMC): 6200 nM

COc1ccc(-c2cnc3nc(N)nc(N4CCN(Cc5ccccc5)CC4)c3n2)cc1OC
IC50 (PBMC): 90 nM

COc1ccc(-c2cnc3nc(N)nc(N4CCN(C(=O)NCc5ccc(F)cc5)CC4)c3n2)cc1OC
IC50 [1]: 37 nM | IC50 (PBMC): 700 nM

COc1ccc(-c2cnc3nc(N)nc(N4CCN(Cc5ccccc5F)CC4)c3n2)cc1OC
IC50 [1]: 700 nM | IC50 (PBMC): 200 nM

COc1ccc(-c2cnc3nc(N)nc(N4CCN(C(=O)c5ccccc5)CC4)c3n2)cc1OC
IC50 [1]: 400 nM | IC50 (PBMC): 400 nM

CCOc1nc(N)nc2ncc(-c3cccc(OC)c3)nc12
IC50 [1]: 8300 nM | IC50 (PBMC): 10000 nM

CCOc1ccc(-c2cnc3nc(N)nc(OC(C)C)c3n2)cc1
IC50 [1]: 10000 nM | IC50 (PBMC): 10000 nM

COc1ccc(-c2cnc3nc(N)nc(N4CCN(c5cc(Cl)cc(Cl)c5)CC4)c3n2)cc1OC
IC50 [1]: 3400 nM | IC50 (PBMC): 500 nM

CC(C)Oc1nc(N)nc2ncc(-c3ccc(C(F)(F)F)cc3)nc12
IC50 [1]: > 10000 nM | IC50 (PBMC): 9100 nM
